# According to US20230218608A1, “NEW STRATEGY FOR TREATING PANCREATIC CANCER” (INSERM (INSTITUT NATIONAL DE LA SANTÉ ET DE LA RECHERCHE …, priority 2020, published 2023):
# Columns and labels:
# PDAC cells = assay: Dose-response viability experiments (Crystal violet viability assay); type: cell-based, human; conditions: 72 h; for Relative cell viability, mean of the treated cells: compared to non-treated cells
# Experimental: We used 21 PDAC primary cells obtained from Patient-Derived Xenografts (PDX) from the PaCaOmics cohort, in which patients were included under the Paoli-Calmettes Institute clinical trial number 2011-A01439-32. Consent forms of informed patients were collected and registered in a central database. PDAC cells were obtained and maintained in serum-free ductal media (SFDM) as described, and incubated at 37° C. in a 5% CO2 incubator. Cell lines were monthly tested for Mycoplasma contamination and found to be negative.
# We tested the sensitivity of PDAC cells to three different drugs targeting the FAO pathway: Etomoxir, Perhexiline, and Trimetazidine (all provided by Sigma-Aldrich, Saint-Quentin Fallavier, France), and to the standard chemotherapy Gemcitabine (Gemzar, Eli Lilly & Co).
# Cells were seeded in 96-well plates (5,000 cells per well) and 24 h later, the medium was supplemented with increasing concentrations of the drugs in triplicates. For the combination treatment, we used Perhexiline at 5 μM with increasing doses of Gemcitabine. Cell viability was determined 72 h later by Crystal violet viability assay, which is independent from cell metabolism. Briefly, cells were fixed in Glutaraldehyde 1%, washed twice with PBS, stained with crystal violet 0.1% for 10 min, and then washed three times with PBS. Crystals were solubilized in SDS 1%, and absorbance was measured at 600 nm using an Epoch-Biotek spectrophotometer.
# four PDAC xenografts = assay: Subcutaneous PDAC xenografts, tumor growth (four models overall); type: in vivo, mice; conditions: Perhexiline 5 mg/kg IP every other day, one month
# Experimental: (§1) We assessed the FAO inhibition impact in vivo using the drug Perhexiline in combination with Gemcitabine. We performed subcutaneous xenografts in immunodeficient mice using four different primary PDAC cells. Recipient mice were 6-week-old female Swiss nude mice Crl:Nu(lco)-Foxn1nu purchased from Charles River, France. To obtain the xenografts, subcutaneous tumors from initial mouse donors were removed and finely minced with a scalpel. Then, 150 mg of tumor's pieces were mixed with 50 μl of Matrigel and implanted with a trocar (10 Gauge) in the subcutaneous space of anesthetized mice. Tumor volume was measured twice per week using a digital caliper and using the formula V=lenght×(width)/2. When tumor volume reached 200 mm^3, mice were randomly assigned in a treatment scheme:
# (§2) a) Gemcitabine: 120 mg/kg twice a week
# (§3) b) Perhexiline: 5 mg/kg every other day
# (§4) c) Combination treatment: Gemcitabine plus Perhexiline with the same described indications
# (§5) d) Vehicle: PBS in the case of Gemcitabine treatment controls and 3% DMSO in PBS for combination treatment controls.
# (§6) Mice were treated by intraperitoneal injection during one month, and mice in which tumor volume reached 1.5 cm^3 during this period were ethically sacrificed and tumors removed.
# four PDAC cells = assay: AnnexinV/PI apoptosis assay (flow cytometry); type: cell-based, human; conditions: Perhexiline 7 μM, 72 h
# Experimental: Cells were seeded in 6-well plates in duplicates (150 000 cells per well) and the day after, the corresponding treatment was administered. We treated four PDAC cells with 7 μM of Perhexiline for 72 h (FIG. 5A), and in combination with 1 μM of Gemcitabine for 24 h for the PDAC084T cells. After the treatment period, cells were detached with Accutase, and resuspended in Annexin V-binding buffer (Biolegend). Cell death was determined using the Annexin V and Propidium Iodide (PI) staining (Biolegend), for apoptosis and necrosis, respectively. Ten thousand events per sample were acquired in a MAC SQuant-VYB (Miltenyi Biotec) and data analysis was done with the FlowJo software.
# PDAC084T cells = assay: Real-time metabolic analysis (Seahorse XF Cell Mito Stress Test); type: cell-based, human; conditions: Perhexiline 10 μM, 6 h
# Experimental: We tested the impact of […], and the combination treatment (6 hours) on the mitochondrial respiration in PDAC084T cells. Measurements were performed using the Seahorse Bioscience XFe24 Extracellular Flux Analyzer (Agilent). Sixteen hours before the assay, cells at exponential growth were seeded into Seahorse 24-well plates and cultured at 37° C. with 5% CO2. Six hours before the assay, the media was replaced with vehicle DMSO (0.01%), Gemcitabine (1 μM), Perhexiline (10 μM), or the combination of the two drugs. After 6 h treatment, the media was replaced with OXPHOS assay medium (DMEM without phenol red [Sigma-Aldrich reference D5030], 143 mM NaCl, 2 mM glutamine, 1 mM sodium pyruvate and 10 mM glucose, pH 7.4) and the plate was pre-incubated for 1 h at 37° C. in a non-CO2 incubator. OCR was measured under basal conditions, and then after sequential injections of Oligomycin at 1 μM, carbonyl cyanide-p-trifluoromethox-[…]-hydrazon (FCCP, the concentration was optimized for each cell line), and 0.5 μM of Rotenone plus Antimycin A. Oligomycin is a respiratory Complex V inhibitor that allows to calculate ATP production by mitochondria, and FCCP is an uncoupling agent allowing the determination of the maximal respiration and the spare capacity. […]
# PDAC012T xenograft = assay: Subcutaneous PDAC xenograft, tumor growth; type: in vivo, mice; conditions: one month IP; Gemcitabine 120 mg/kg twice a week; intermediate responder
# Experimental: as §1, §2, §3, §4, §5, §6
# PDAC032T xenograft = assay: Subcutaneous PDAC xenograft, tumor growth; type: in vivo, mice; conditions: one month IP; Gemcitabine 120 mg/kg twice a week; low responder
# Experimental: as §1, §2, §3, §4, §5, §6
# PDAC084T xenograft = assay: Subcutaneous PDAC xenograft, tumor growth; type: in vivo, mice; conditions: one month IP; Gemcitabine 120 mg/kg twice a week, Perhexiline 5 mg/kg every other day; high responder
# Experimental: as §1, §2, §3, §4, §5, §6
smiles,measurement,setting,value
C1CCC(C(CC2CCCCN2)C2CCCCC2)CC1 (stereo not shown) [Perhexiline],Cell viability,PDAC cells; Perhexiline 5 μM alone,no impacts cell viability
same,"Relative cell viability, mean of the treated cells",PDAC cells; Perhexiline 7 μM,0.72
same,Tumor growth compared with vehicle-injected mice,four PDAC xenografts,doesn't have any impact on tumor growth
same,Cell death (apoptosis induction),four PDAC cells,apoptotic inductor
same,Decrease of mitochondrial respiration (OCR),PDAC084T cells,about 50%
CCOC(=O)[C@@]1(CCCCCCOc2ccc(Cl)cc2)CO1 [Etomoxir],"Relative cell viability, mean of the treated cells",PDAC cells; Etomoxir 62.5 μM,0.75
Nc1ccn([C@@H]2O[C@H](CO)[C@@H](O)C2(F)F)c(=O)n1 [Gemcitabine],Tumor growth,PDAC012T xenograft,arresting the tumor growth
same,Tumor growth,PDAC032T xenograft,induces tumor regression
same,Tumor growth,PDAC084T xenograft,arresting the tumor growth
COc1ccc(CN2CCNCC2)c(OC)c1OC [Trimetazidine],Relative cell viability,"PDAC cells; Trimetazidine 62.5 μM, compared with non-treated cells",no effect in any cell
